Experiments:
Pyricularia oryzae = format: in vivo; conditions: concentration of 500 ppm (w/v) or less, spray or stem base drench
Plasmopara viticola = conditions: in vivo; further: key: 1 is little or no control; 2 is moderate control; 3 is good to total control
Leptosphaeria nodorum = conditions: in vivo; further: key: 1 is little or no control; 2 is moderate control; 3 is good to total control
Phytophthora infestans = format: in vivo; conditions: concentration of 500 ppm (w/v) or less, spray or stem base drench

Structure (SMILES)	score of disease control (degree of infection visually estimated) (Pyricularia oryzae)	score of disease control (degree of infection visually estimated) (Plasmopara viticola)	other results
N#CC(=NOc1ncc(C(F)(F)F)cc1Cl)c1c(Cl)cccc1Cl (single isomer, unassigned) [Compound 937]	2	–	–
N#CC(=NOc1ncc(C(F)(F)F)cc1Cl)c1c(Cl)cccc1Cl (single isomer, unassigned) [Compound 938]	2	–	–
CCOC(=O)C(c1ncc(C(F)(F)F)cc1Cl)N(Cc1ccccc1Cl)C(C)=O (stereo not drawn) [Compound 7]	2	2	–
CCOC(=O)C(c1ncc(C(F)(F)F)cc1Cl)N(Cc1ccccc1Cl)C(=O)C(=O)OC (stereo not drawn) [Compound 9]	2	2	–
CCOC(=O)C(c1ncc(C(F)(F)F)cc1Cl)N(Cc1ccc2c(c1)OCO2)C(=O)C(=O)OC (stereo not drawn) [Compound 12]	–	2	–
CC(NCc1ncc(C(F)(F)F)cc1Cl)c1ccccc1Cl (stereo not drawn) [Compound 17]	2	–	–
CC(NCc1ncc(C(F)(F)F)cc1Cl)c1ccc(F)c(F)c1 (stereo not drawn) [Compound 23, N-{[3-Chloro-5-(trifluoromethyl)-2-pyridyl]methyl}-N-[1-(3,4-difluorophenyl)-ethyl]amine]	–	–	score of disease control (degree of infection visually estimated) (Leptosphaeria nodorum): 2
COc1ccc(OC)c(CNCc2ncc(C(F)(F)F)cc2Cl)c1 [Compound 49]	–	–	score of disease control (degree of infection visually estimated) (Phytophthora infestans): 2
O=[N+]([O-])c1ccc(CNCc2ncc(C(F)(F)F)cc2Cl)cc1 [Compound 51]	–	–	score of disease control (degree of infection visually estimated) (Leptosphaeria nodorum): 2
O=C(NNc1ncc(C(F)(F)F)cc1Cl)c1c(Cl)cccc1Cl [Compound 102]	–	2	score of disease control (degree of infection visually estimated) (Phytophthora infestans): 2
CN(NC(=O)c1c(Cl)cccc1Cl)c1ncc(C(F)(F)F)cc1Cl [Compound 109]	–	2	–
O=C(NNc1ncc(C(F)(F)F)cc1Cl)c1c(F)cccc1Cl [Compound 126]	2	2	score of disease control (degree of infection visually estimated) (Leptosphaeria nodorum): 2; score of disease control (degree of infection visually estimated) (Phytophthora infestans): 2
CC(NC(=O)c1ncc(C(F)(F)F)cc1Cl)c1c(F)cccc1F (stereo not drawn) [Compound 202]	–	–	score of disease control (degree of infection visually estimated) (Phytophthora infestans): 2
CC(NC(=O)c1ncc(C(F)(F)F)cc1Cl)c1ccc(Cl)cc1 (stereo not drawn) [Compound 207]	–	–	score of disease control (degree of infection visually estimated) (Leptosphaeria nodorum): 2
CC(NC(=O)c1ncc(C(F)(F)F)cc1Cl)c1ccc(Br)cc1 (stereo not drawn) [Compound 208]	–	–	score of disease control (degree of infection visually estimated) (Leptosphaeria nodorum): 2
Cc1ccc(CNC(=O)c2ncc(C(F)(F)F)cc2Cl)cc1 [Compound 215]	–	2	score of disease control (degree of infection visually estimated) (Phytophthora infestans): 2
O=C(C=Cc1ncc(C(F)(F)F)cc1Cl)c1ccccc1[N+](=O)[O-] [Compound 601, 3-[3-Chloro-5-(trifluoromethyl)-2-pyridyl]-1-(2-nitrophenyl)-2-propen-1-one]	–	2	score of disease control (degree of infection visually estimated) (Phytophthora infestans): 2
CC(=NOc1ncc(C(F)(F)F)cc1Cl)c1ccccc1Cl [Compound 901]	2	2	–
FC(F)(F)c1cnc(ON=Cc2ccncc2)c(Cl)c1 [Compound 902]	–	–	score of disease control (degree of infection visually estimated) (Phytophthora infestans): 2
CC(=NOc1ncc(C(F)(F)F)cc1Cl)c1cccn1C [Compound 906]	2	–	score of disease control (degree of infection visually estimated) (Leptosphaeria nodorum): 2
CC(=NOc1ncc(C(F)(F)F)cc1Cl)c1ccccc1C [Compound 907]	2	2	–

Structure (SMILES)	score of disease control (degree of infection visually estimated) (Pyricularia oryzae)	score of disease control (degree of infection visually estimated) (Plasmopara viticola)	other results
CC(C)(C)C(=NOc1ncc(C(F)(F)F)cc1Cl)c1ccccn1 [Compound 912]	–	–	score of disease control (degree of infection visually estimated) (Phytophthora infestans): 2
CC(=NOc1ncc(C(F)(F)F)cc1Cl)c1cccs1 [Compound 913]	2	–	–
COc1ccc(C=NOc2ncc(C(F)(F)F)cc2Cl)cc1 [Compound 914]	–	2	–
CC(=NOc1ncc(C(F)(F)F)cc1Cl)c1ccc(C)cc1C [Compound 915]	–	2	–
COc1ccccc1C=NOc1ncc(C(F)(F)F)cc1Cl [Compound 921]	–	2	–
CCC(=NOc1ncc(C(F)(F)F)cc1Cl)c1ccccc1 [Compound 922]	2	–	–
O=[N+]([O-])c1cccc(C=NOc2ncc(C(F)(F)F)cc2Cl)c1 [Compound 923]	2	–	score of disease control (degree of infection visually estimated) (Leptosphaeria nodorum): 2
N#CC(=NOc1ncc(C(F)(F)F)cc1Cl)c1ccccc1 [Compound 926]	–	–	score of disease control (degree of infection visually estimated) (Leptosphaeria nodorum): 2
CC(=NOc1ncc(C(F)(F)F)cc1Cl)c1ccccc1 [Compound 927]	–	–	score of disease control (degree of infection visually estimated) (Phytophthora infestans): 2
FC(F)(F)c1cnc(ON=Cc2ccccc2Cl)c(Cl)c1 [Compound 929]	–	–	score of disease control (degree of infection visually estimated) (Leptosphaeria nodorum): 2
FC(F)(F)c1cnc(ON=Cc2cccc3ccccc23)c(Cl)c1 [Compound 933]	–	–	score of disease control (degree of infection visually estimated) (Leptosphaeria nodorum): 2
N#CC(=NOc1ncc(C(F)(F)F)cc1Cl)c1ccccc1C#N [Compound 939]	2	–	–
CCC(=NOc1ncc(C(F)(F)F)cc1Cl)c1ccc(Cl)cc1Cl [Compound 953]	–	–	score of disease control (degree of infection visually estimated) (Phytophthora infestans): 2
FC(F)(F)c1cnc(ON=C(c2ccc(Cl)cc2)c2ccc(Cl)cc2)c(Cl)c1 [Compound 958]	–	2	–
Cc1cnc(C(=O)NOc2ncc(C(F)(F)F)cc2Cl)cn1 [Compound 1001]	2	2	–
Cc1nc(C)c(C(=O)NOc2ncc(C(F)(F)F)cc2Cl)s1 [Compound 1007]	–	–	score of disease control (degree of infection visually estimated) (Leptosphaeria nodorum): 2
O=C(NOc1ncc(C(F)(F)F)cc1Cl)c1ccccc1Cl [Compound 1013]	–	2	–
CC1CCc2ccccc2C1=NOc1ncc(C(F)(F)F)cc1Cl (stereo not drawn) [Compound 1101, 2-Methyl-1,2,3,4-tetrahydro-1-naphthalenone O-1-[3-chloror-5-(trifluoromethyl)-2-pyridyl]oxime]	–	–	score of disease control (degree of infection visually estimated) (Phytophthora infestans): 2
COc1ccc2c(c1)C(=NOc1ncc(C(F)(F)F)cc1Cl)CCC2 [Compound 1102]	–	–	score of disease control (degree of infection visually estimated) (Phytophthora infestans): 2
CN1C(=O)C(=NOc2ncc(C(F)(F)F)cc2Cl)c2ccccc21 [Compound 1109]	–	–	score of disease control (degree of infection visually estimated) (Leptosphaeria nodorum): 2
